The values below come from article PMC3658274, “Characterization of drug-induced transcriptional modules: towards drug repositioning and functional understanding” (Molecular Systems Biology, 2013).

The IC50 is the point on the concentration scale where inhibition reaches its midpoint. By Ki is commonly meant a dissociation constant, usually derived from enzyme kinetics or from competition with a known ligand.

Test [1] has as its system HL60. Description: cells. Set-up: Cell viability, Alamar Blue fluorescence. Particulars: Homo sapiens, HL-60, 72 h. The protocol:
(§1) HL60 (CPQ-054) was cultured as suspension cells in RPMI-1640 containing 10% FCS and penicillin/streptomycin. MCF7 (CPQ-072) cells were cultured as adherent cells in DMEM containing 10% FCS and penicillin/streptomycin. Cells were cultured at 37 °C in an atmosphere of 5% (HL60) or 10% (MCF7) CO2. For the assays, cells (5000 cells/well) were seeded in 150 μl medium on a 96-well cell culture plate and incubated overnight at 37 °C. The next day, cells were treated with different concentrations of selected chemicals from CMap. After 72 h, the viability of treated cells was measured after incubation for 4 h with the indicator dye Alamar Blue and fluorescence measurement at 590 nm. The single concentration of mephentermine (50 μM) was tested in quadruplicates. The IC50 curves for the predicted compounds (sulconazole, vinburnine) and their corresponding negative controls (butoconazole, moxisylyte hydrochloride) were prepared in eight semilog dilutions starting at 1E-5M and tested in duplicates. The reference compound staurosporine was prepared in eight decalog dilutions starting at 1E-5M. Standard solvent controls were performed using 0.1% DMSO. Treatment of cells with 0.1% DMSO and 1E-5M staurosporine served as high control (100% viability) and low control (0% viability), respectively. Raw data were converted into percent viability relative to high controls (solvent 0.1% DMSO) and low controls (1E-05M staurosporine), which were set to 100 and 0%, respectively. IC50 values were calculated using R package ‘drc’ ([Ritz and Streibig, 2005]) by fitting dose response data to a two-parametric log-logistic function with 0% growth as bottom constraint and 100% growth as top constraint. For cell cycle analysis, HL60 cells (ATCC CCL-240) were grown for 6 h with an initial concentration of 0.4 Mio/ml in 3 ml of medium before sulconazole (25 μM) and vinburnine (25 μM) (nocodazole, 200ng/ml as reference) were added. For three time points (24, 48 and 72 h), (un)treated cells were collected, fixed in 80% methanol for 24 h and further rehydrated in PBS/1%FCS at room temperature for 30 min before RNAse A (100 μg/ml) and PI (50 μg/ml) treatment. FACS (FACSCalibur, BD Biosciences) was empl

The subject of test [2] is MCF7. Description: cells. Further details: Cell viability, Alamar Blue fluorescence. To be noted: Homo sapiens, MCF7, 72 h. The method, then:
as §1

The target in test [3] is T1, estrogen receptor-α (ERα) (Homo sapiens, UniProt P03372).
T1 construct: gene ESR1
T1 sequence (P03372 1-595): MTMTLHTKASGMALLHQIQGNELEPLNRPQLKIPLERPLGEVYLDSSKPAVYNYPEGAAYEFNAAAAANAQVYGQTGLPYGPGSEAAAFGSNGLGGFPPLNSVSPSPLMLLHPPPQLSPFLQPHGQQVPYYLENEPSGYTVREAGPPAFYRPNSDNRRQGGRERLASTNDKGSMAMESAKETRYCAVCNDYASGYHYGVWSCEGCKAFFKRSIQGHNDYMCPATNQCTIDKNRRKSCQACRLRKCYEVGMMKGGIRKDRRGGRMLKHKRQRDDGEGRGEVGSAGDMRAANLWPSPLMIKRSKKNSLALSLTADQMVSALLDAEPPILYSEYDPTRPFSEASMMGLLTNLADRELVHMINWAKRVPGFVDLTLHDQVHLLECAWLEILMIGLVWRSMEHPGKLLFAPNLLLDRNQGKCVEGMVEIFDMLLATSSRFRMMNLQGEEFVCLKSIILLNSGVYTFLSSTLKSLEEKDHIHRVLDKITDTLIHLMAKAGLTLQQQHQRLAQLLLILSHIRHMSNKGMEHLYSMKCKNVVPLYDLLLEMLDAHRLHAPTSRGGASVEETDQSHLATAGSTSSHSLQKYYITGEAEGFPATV
Put plainly: cell-based. Particulars: read-out: Antag./Inhibitor. Set-up: Cerep cellular ER alpha antagonist effect assay (ref. 3495). The method, then:
(§2) In vitro binding assays were performed by the company Cerep for α-2 adrenergic receptor (agonist, ref. 3443), estrogen receptor-α(ERα, agonist, ref. 0484) and PPARγ (agonist, ref. 0641). Similarly, Cerep carried out the cellular assays of 2C-1 adrenergic receptor (α1B, agonist effect, ref. 1901) and ERα (antagonistic effect, ref. 3495). […] The effect of chemicals were initially evaluated at 50 μM, and Ki values were further determined for chemicals with more than 40% activity in initial assessment. As explained above, R package ‘drc’ ([Ritz and Streibig, 2005]) was utilized to calculate IC50 values using a two-parametric log-logistic function with 0% as minimum and 100% as maximum. Ki values were generated from the IC50 values using Cheng–Prusoff equation.

The target of test [4] is T2, ADRA1B (Homo sapiens, UniProt P35368).
T2 sequence (P35368 1-520): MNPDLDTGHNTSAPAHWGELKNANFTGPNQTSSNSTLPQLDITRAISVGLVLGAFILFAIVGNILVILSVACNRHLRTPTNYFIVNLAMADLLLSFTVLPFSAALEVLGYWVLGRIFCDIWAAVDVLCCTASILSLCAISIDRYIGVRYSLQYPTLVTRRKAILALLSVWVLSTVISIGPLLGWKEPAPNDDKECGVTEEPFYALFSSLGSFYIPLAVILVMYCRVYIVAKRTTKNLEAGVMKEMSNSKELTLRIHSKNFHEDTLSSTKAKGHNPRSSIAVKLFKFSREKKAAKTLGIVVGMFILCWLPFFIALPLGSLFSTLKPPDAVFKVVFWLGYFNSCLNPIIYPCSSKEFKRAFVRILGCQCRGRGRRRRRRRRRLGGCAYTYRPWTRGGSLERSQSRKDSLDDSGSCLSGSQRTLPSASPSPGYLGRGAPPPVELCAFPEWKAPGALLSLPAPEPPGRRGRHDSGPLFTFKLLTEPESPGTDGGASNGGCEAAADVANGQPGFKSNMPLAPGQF
Put plainly: cell-based. Further details: Cerep cellular alpha1B adrenergic receptor agonist effect assay (ref. 1901). Particulars: read-out: Agonist. The method, then:
as §2

Test [5] addresses T3, ADRA2C (α-2 adrenergic receptor) (Homo sapiens, UniProt P18825).
T3 sequence (P18825 1-462): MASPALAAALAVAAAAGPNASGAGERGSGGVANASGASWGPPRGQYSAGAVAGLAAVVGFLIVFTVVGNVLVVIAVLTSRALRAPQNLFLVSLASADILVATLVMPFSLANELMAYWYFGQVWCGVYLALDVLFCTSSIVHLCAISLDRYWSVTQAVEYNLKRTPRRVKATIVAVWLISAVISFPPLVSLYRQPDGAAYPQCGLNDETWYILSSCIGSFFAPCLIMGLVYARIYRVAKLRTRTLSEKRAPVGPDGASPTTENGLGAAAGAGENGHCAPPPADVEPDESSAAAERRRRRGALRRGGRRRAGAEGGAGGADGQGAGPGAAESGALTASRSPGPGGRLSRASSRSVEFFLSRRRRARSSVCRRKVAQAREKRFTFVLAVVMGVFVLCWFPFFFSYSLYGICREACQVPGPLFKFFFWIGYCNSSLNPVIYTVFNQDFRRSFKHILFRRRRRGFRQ
Description: biochemical. Set-up: Cerep in vitro receptor binding assay (agonist ligand), per cent inhibition at 50 uM and Ki by Cheng-Prusoff. Particulars: read-out: % inhibition. The method, then:
as §2

For test [6], the target named is T4, PPARγ (peroxisome proliferator-activated receptor subtype-γ) (Homo sapiens, UniProt P37231).
T4 construct: gene PPARG
T4 sequence (P37231 1-505): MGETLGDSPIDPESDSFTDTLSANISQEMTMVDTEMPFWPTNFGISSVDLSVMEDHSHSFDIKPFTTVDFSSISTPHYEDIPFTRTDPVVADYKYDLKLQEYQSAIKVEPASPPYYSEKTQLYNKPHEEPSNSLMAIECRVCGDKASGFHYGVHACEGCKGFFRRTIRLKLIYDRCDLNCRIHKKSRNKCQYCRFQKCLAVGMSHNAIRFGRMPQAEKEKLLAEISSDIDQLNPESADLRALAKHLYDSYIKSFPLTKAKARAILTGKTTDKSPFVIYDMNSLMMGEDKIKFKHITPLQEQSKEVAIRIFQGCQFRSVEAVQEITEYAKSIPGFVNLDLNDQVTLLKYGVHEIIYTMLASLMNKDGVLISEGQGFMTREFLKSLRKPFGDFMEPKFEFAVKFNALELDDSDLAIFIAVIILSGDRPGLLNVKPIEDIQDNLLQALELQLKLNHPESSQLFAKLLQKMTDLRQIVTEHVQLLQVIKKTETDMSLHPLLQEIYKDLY
Put plainly: biochemical. Set-up: Cerep in vitro receptor binding assay (agonist ligand), per cent inhibition at 50 uM and Ki by Cheng-Prusoff. To be noted: read-out: % inhibition. The method, then:
as §2

The target in test [7] is T5, estrogen receptor-α (ERα) (Homo sapiens, UniProt P03372).
T5 construct: gene ESR1
Put plainly: in vitro binding assay (Cerep, agonist, ref. […]), Ki from IC50 by Cheng-Prusoff; authors call it ambiguous.

For test [8], the target named is T1, estrogen receptor-α (ERα). Put plainly: biochemical. Set-up: Cerep in vitro receptor binding assay (agonist ligand), per cent inhibition at 50 uM and Ki by Cheng-Prusoff. Particulars: read-out: % inhibition.
For test [9], the target named is T4, PPARγ (peroxisome proliferator-activated receptor subtype-γ). Put plainly: in vitro binding assay (Cerep, agonist, ref. […]), Ki from IC50 by Cheng-Prusoff.

On to `Clc1ccc(CCC(Cn2ccnc2)Sc2c(Cl)cccc2Cl)cc1` (stereo not shown) [Butoconazole], for which the IC50 in test [1] turned out to be 3.9 µM; in test [2], 23 µM.
Consider `COc1cc(C(=O)OCCCN2CCCN(CCCOC(=O)c3cc(OC)c(OC)c(OC)c3)CC2)cc(OC)c1OC` [Dilazep], for which the inhibition at 50 µM in test [3] worked out at 26.3%.
On to `CC(=O)Oc1cc(C(C)C)c(OCCN(C)C)cc1C` [Moxisylyte], for which the IC50 in test [1] and in [2] was > 50 µM in each case.
For the molecule `COc1cc([C@@H]2c3cc4c(cc3[C@H](O)[C@H]3COC(=O)[C@H]23)OCO4)cc(OC)c1OC` [Podophyllotoxin], the activity at 50 µM in [4] was < 20%. In test [5], the inhibition at 50 µM is < 20%.
Turning to `COC(=O)C1=CO[C@@H](C)[C@H]2CN3CCc4c([nH]c5ccccc45)[C@@H]3C[C@H]12` [Raubasine], the inhibition at 50 µM in test [6] was < 20%.
In the case of `C=CC(N)CCC(=O)O` (stereo not shown) [Vigabatrin], the activity at 50 µM in test [4] was < 20%. Also, the inhibition at 50 µM in test [5] was < 20%.
As to `CCCCC(CC)CN1CN(CC(CC)CCCC)CC(C)(N)C1` (stereo not shown) [hexetidine], in test [4], the activity at 50 µM was < 20%. For the same molecule, the inhibition at 50 µM in [5] turned out to be 59%.
In the case of `CCOC(=O)C1=C(C)NC(C)=C(C(=O)OC)C1c1cccc([N+](=O)[O-])c1` (stereo not shown) [nitrendipine], the Ki in test [7] was ~46 µM. Also, in test [8], the inhibition at 50 µM was determined as 49%.
Molecule `CCCOc1ccccc1-c1nc2nn[nH]c2c(=O)[nH]1` [zaprinast] showed a Ki in test [9] of 14 µM. The inhibition at 50 µM in test [6] is 57%.
